Tested on: caspase-14
Assay: caspase-14 production in amino acid-depleted epidermal keratinocytes (ELISA)
Format: cell-based
Conditions: human skin-simulating medium 2, cultured 4 days
Excerpt: Culture media ([…] medium) used for cell culture contain amino acids necessary for cells to survive and grow. […] human skin-simulating medium 2: The essential amino acids in D-MEM (Life Technologies 21068-028) were changed to the concentrations shown in Table 10, human skin-simulating medium 2. […] The next day, the medium was replaced with the medium of evaluation condition (5)-(7). • Evaluation condition (5): Human skin-simulating medium 2 (hereinafter the sample evaluated under evaluation condition (5) is referred to as “Control 3”). • Evaluation condition (6): Medium obtained by adding His (final concentration 0.2 mM), Leu (final concentration 0.8 mM), Val (final concentration 0.8 mM) to human skin-simulating medium 2 (hereinafter the sample evaluated under evaluation condition (6) is referred to as “Example 3”). • Evaluation condition (7): Medium obtained by adding His (final concentration 0.2 mM) to human skin-simulating medium 2 (hereinafter the sample evaluated under evaluation condition (7) is referred to as “Example 4”). […] The protein extract of the above-mentioned 4 was diluted with water, and the protein was quantified using Micro BCA Protein Assay Kit (Thermo Fisher Scientific 23235). • 6. The amount of caspase-14 determined in the above-mentioned 4 was normalized by the amount of protein determined in the above-mentioned 5. • 7. […]

How did the “amount of caspase-14 (normalized by protein amount, Control 3 as 100%)” value (Experimental Example 2-3, FIG. 3, final His 0.2, Leu 0.8, Val 0.8 mM or His 0.2 mM alone) turn out when `N[C@@H](Cc1c[nH]cn1)C(=O)O` [His, histidine] was run?
Its value is “remarkably increased”.

And the “amount of caspase-14 (normalized by protein amount, Control 7 as 100%)” value (Experimental Example 3-3-1, FIG. 6A, final His 0.2, Leu 0.8, Val 0.8 mM, Val 0.8 mM alone or His 0.2 mM alone)?
Its value is “remarkably increased”.
